The structures appear in SMILES notation.

Usually AC50 stands for the concentration giving half of the maximal activity seen.

This assay has as its target T1, SHP2 (Homo sapiens, UniProt Q06124).
T1 sequence (Q06124 1-593): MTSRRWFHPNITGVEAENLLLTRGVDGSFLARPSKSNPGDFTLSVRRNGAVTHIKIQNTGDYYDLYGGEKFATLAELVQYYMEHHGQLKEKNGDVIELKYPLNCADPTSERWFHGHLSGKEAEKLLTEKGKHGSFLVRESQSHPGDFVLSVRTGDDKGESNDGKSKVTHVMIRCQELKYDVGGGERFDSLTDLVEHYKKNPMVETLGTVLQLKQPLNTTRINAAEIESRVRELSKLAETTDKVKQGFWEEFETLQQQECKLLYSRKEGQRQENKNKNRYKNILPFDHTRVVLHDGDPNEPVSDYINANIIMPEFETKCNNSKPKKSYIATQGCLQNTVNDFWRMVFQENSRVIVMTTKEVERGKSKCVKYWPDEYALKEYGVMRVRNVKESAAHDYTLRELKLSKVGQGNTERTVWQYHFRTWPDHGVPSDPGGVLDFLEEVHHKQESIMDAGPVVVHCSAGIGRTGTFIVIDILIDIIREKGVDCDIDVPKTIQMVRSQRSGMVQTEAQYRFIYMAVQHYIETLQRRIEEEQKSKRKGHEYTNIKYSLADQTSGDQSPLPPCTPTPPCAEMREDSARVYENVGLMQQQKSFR
The experiment in a line: SHP2 Allosteric Inhibition Assay. It counts as biochemical. Conditions: 0.5 nM SHP2 activated with 0.5 μM peptide IRS1_pY1172(dPEG8)pY1222; surrogate substrate DiFMUP, prompt fluorescence, 25° C. The text has this: SHP2 Allosteric Inhibition Assay
SHP2 is allosterically activated through binding of bis-tyrosyl-phorphorylated peptides to its Src Homology 2 (SH2) domains. The latter activation step leads to the release of the auto-inhibitory interface of SHP2, which in turn renders the SHP2 protein tyrosine phosphatase (PTP) active and available for substrate recognition and reaction catalysis. The catalytic activity of SHP2 was monitored using the surrogate substrate DiFMUP in a prompt fluorescence assay format.
After 30-60 minutes incubation at 25° C., the surrogate substrate DiFMUP (Invitrogen, cat# D6567) was added to the reaction and incubated at 25° C. for 30 minutes. […] The inhibitor dose response curves were analyzed using normalized IC50 regression curve fitting with control based normalization.

`CC1(CN)CCN(c2cnc(Sc3ccnc(N)c3Cl)cn2)CC1O` (single isomer, unassigned) [Example 39] showed an AC50 of 28.2 nM.

Regarding `CCOc1cccc(Sc2cnc(N3CCC4(CCC[C@H]4N)CC3)cn2)c1` [Example 83], the concentration at half-maximal activity (AC50) was 78.1 nM.
